Data set [1] is described as follows: Oral LD 50 determined according to the method of Karber and Behrens on mice. The conditions noted are these: mouse, in vivo, female mice 24 to 26 g, read-out: LD 50 per os. The method, then: The products of the invention are hardly toxic.
The oral LD 50 (see the table below) was determined according to the method of Karber and Behrens (Arch. Exp. Pathol. Pharm. 177, 1935, page 379) on mice EVIC CEBA .female. Swiss EOPS NMRI Han of 24 to 26 g weight.

Another data set has as its system rats. The data set can be described thus: Hypolipemic activity: hyperlipidemia experimentally induced by Triton in rats. Also noted: key: NS: non-significant result. Particulars: 18 h after i.v. Triton; for Hypolipemic activity, percentages of diminution: Triglycerides / Hypolipemic activity, percentages of diminution: total lipids / Hypolipemic activity, percentages of diminution: β-lipoprotein / Hypolipemic activity, percentages of diminution: Cholesterol: single p.o. dose mg/kg: clofibrate 225, Ex 1, 2: 500, Ex 3: 270, Ex 4: 127, Ex 5: 175, Ex 6: 310, Ex 12: 250, Ex 13: 140, Ex 14: 95; for Hypolipemic activity, percentages of diminution: optical serum density: serum at 691 nanometres, single p.o. dose mg/kg: Ex 1, 2: 500, Ex 3: 270, Ex 4: 127, Ex 5: 175, Ex 6: 310, Ex 12: 250, Ex 13: 140, Ex 14: 95. In kind it is in vivo. The method, then: The technique used to show these properties has been described by M. Friedman and S. E. Byers in : J. Exptl. Med. 97, 117, 1953 and likewise by S. Garattini and colleagues in Arzneim. Forsch. 9, 206, 1959.
The rats received intravenously 0.3 ml per 100 grams of body weight of a solution of Triton 13 39 at 10%. The products to be tested are administered simultaneously orally at a dose corresponding to a tenth of their LD 50, determined orally in mice, without the dose used exceeding 500 mg/kg.
Eighteen hours after the injection of Triton the animals are sacrificed by section of the carotid and the blood is collected to determined the lipid parameters : cholesterol (auto-analyser Technicon AA II Lieberman Burchard), beta- lipoproteins, (Burnstein), total lipids (Chabrol and Charonnat), triglycerides (Boehringer enzymatic).
The optical density of the serum at 691 nanometres is measured in each case. Each product was tested on ten animals. The statistic calculations were carried out on the averages affected by their divergence from the average using the Student test.
The reference compound used is clofibrate.

A short description of data set [2]: Solubility of the isolated product. In kind it is physicochemical. The conditions noted are these: in words.

We go through 14 compounds from US4153729A, “Therapeutically useful cysteinol and homocysteinol derivatives” (Recherches Pharmaceutiques et Scientifiques, priority 1977, dated 1979).

Structures are written as SMILES. Where a name gives a salt, the structure may show the parent alone.

For the compound `CCOC(=O)C(C)(C)Oc1ccc(Cl)cc1` [Clofibrate, reference compound], the LD50 in data set [1] amounted to 2300 mg/kg.
On to `NC(CO)CSCSCC(N)CO` (centres unmarked) [Example 1, 2,8-diamino-4,6-dithia-1,9-nonanediol], for which the LD50 in data set [1] was above 5000 mg/kg. Moreover, in the data set with rats, the “Hypolipemic activity, percentages of diminution: Triglycerides” value is “NS”; the “Hypolipemic activity, percentages of diminution: total lipids” value is given as “NS”; the “Hypolipemic activity, percentages of diminution: β-lipoprotein” value is “NS”; the “Hypolipemic activity, percentages of diminution: optical serum density” value was “NS”. The solubility result in data set [2] was “soluble in the cold in water, alcohol, ether”.
For the compound `NC(CO)CSCCCCSCC(N)CO` (centres unmarked) [Example 2, 2,11-diamino-4,9-dithia-1,12-dodecanediol], the LD50 in data set [1] was determined as 5000 mg/kg. In addition, in the data set on rats, the “Hypolipemic activity, percentages of diminution: Cholesterol” value was “NS”; the “Hypolipemic activity, percentages of diminution: total lipids” value is given as “NS”; the “Hypolipemic activity, percentages of diminution: β-lipoprotein” value is “NS”; the “Hypolipemic activity, percentages of diminution: optical serum density” value is “NS”. Moreover, the solubility result in data set [2] was “soluble in water, alcohols, ether”.
On to `NC(CO)CSCCCCCCSCC(N)CO` (centres unmarked) [Example 3, 2,13-diamino-4,11-dithia-1,14-tetradecanediol], for which the LD50 in data set [1] worked out at 2700 mg/kg. In addition, the solubility result in data set [2] is on record as “soluble in water, alcohols, ether”.
For `NC(CO)CSCCCCCCCCSCC(N)CO` (centres unmarked) [Example 4, 2,15-diamino-4,13-dithia-1,16-hexadecanediol], in data set [1], the LD50 is 1280 mg/kg. For the same compound, the “Hypolipemic activity, percentages of diminution: total lipids” value in the data set with rats is listed as “NS”. The solubility result in data set [2] was “soluble in water, alcohols, ether”.
On to `NC(CO)CSCCCCCCCCCCSCC(N)CO` (centres unmarked) [Example 5, 2,17-diamino-4,15-dithia-1,18-octadecanediol], for which, in data set [1], the LD50 is 1750 mg/kg. In the data set with rats, the “Hypolipemic activity, percentages of diminution: total lipids” value is “NS” and the “Hypolipemic activity, percentages of diminution: β-lipoprotein” value was “NS”.
Consider `NC(CO)CSSCC(N)CO` (centres unmarked) [Example 6, 2,7-diamino-4,5-dithia-1,8-octanediol], for which the LD50 in data set [1] came out at 3100 mg/kg. In addition, the solubility entry in data set [2] is “soluble in water, methanol, ethanol”.
For the compound `NC(CO)CCSCSCCC(N)CO` (centres unmarked) [Example 8, neutral oxalate of 2,10-diamino-5,7-dithia-1,11 undecanediol], the solubility entry in data set [2] was “Soluble in water and alcohols”.
Consider `NC(CO)CCSCCSCCC(N)CO` (centres unmarked) [Example 9, neutral oxalate of 2,11-diamino-5,8-dithia-1,12 dodecanediol], for which the solubility entry in data set [2] was “soluble in water and alcohols”.
As to `NC(CO)CCSCCCCSCCC(N)CO` (centres unmarked) [Example 10, mandelate of 2,13-diamino-5,10-dithia-1,14-tetradecanediol], the solubility entry in data set [2] was “soluble in water, alcohols and dimethylformamide”.
Same read-out and setting: the entry for `NC(CO)CCSCCCCCSCCC(N)CO` (centres unmarked) [Example 11, mandelate of 2,14-diamino-5,11-dithia-1,15-pentadecanediol] is “Soluble in water, alcohols, DMF”.
On to `NC(CO)CCSCCCCCCSCCC(N)CO` (centres unmarked) [Example 12, 2,15-diamino-5,12-dithia-1,16-hexadecanediol], for which, in data set [1], the LD50 was found to be 2500 mg/kg. Moreover, in the data set on rats, the “Hypolipemic activity, percentages of diminution: Cholesterol” value is on record as “NS”; the “Hypolipemic activity, percentages of diminution: Triglycerides” value was “NS”; the “Hypolipemic activity, percentages of diminution: total lipids” value is given as “NS”; the “Hypolipemic activity, percentages of diminution: optical serum density” value was “NS”. In addition, the solubility result in data set [2] is “soluble in water and alcohols”.
With `NC(CO)CCSCCCCCCCCSCCC(N)CO` (centres unmarked) [Example 13, 2,17-diamino-5,14-dithia-1,18-octadecanediol], in data set [1], the LD50 was found to be 1400 mg/kg. Further, in data set [2], the solubility entry is “soluble in water and alcohols”.
On to `NC(CO)CCSCCCCCCCCCCSCCC(N)CO` (centres unmarked) [Example 14, 2,19-diamino-5,16-dithia-1,20-eicosanediol], for which, in data set [1], the LD50 was found to be 950 mg/kg. Besides, in the data set on rats, the “Hypolipemic activity, percentages of diminution: Cholesterol” value is on record as “NS”; the “Hypolipemic activity, percentages of diminution: Triglycerides” value is recorded as “NS”; the “Hypolipemic activity, percentages of diminution: total lipids” value is “NS”; the “Hypolipemic activity, percentages of diminution: optical serum density” value is given as “NS”. The solubility result in data set [2] is “soluble in water and alcohols”.
